# Values quoted from earlier work as cited in patent publication US20240216476A1, “COMBINATION OF BITTER RECEPTOR AGONIST AND GUT-SIGNALING COMPOUND” (AARDVARK THERAPEUTICS, INC., priority 2021, published 2024).
# Conditions: side effect incidence; cited from earlier work
smiles,measurement,value
CC[C@H](C)[C@H](NC(=O)[C@H](Cc1ccccc1)NC(=O)[C@H](CC(=O)O)NC(=O)[C@H](CCCNC(=N)N)NC(=O)[C@H](C)NC(=O)[C@H](C)NC(=O)[C@H](CC(C)C)NC(=O)[C@H](CC(N)=O)NC(=O)[C@H](CC(=O)O)NC(=O)[C@H](CC(C)C)NC(=O)[C@@H](NC(=O)[C@@H](NC(=O)[C@H](CC(N)=O)NC(=O)[C@H](CCSC)NC(=O)[C@H](CCC(=O)O)NC(=O)[C@H](CC(=O)O)NC(=O)[C@H](CO)NC(=O)[C@H](Cc1ccccc1)NC(=O)[C@H](CO)NC(=O)CNC(=O)[C@H](CC(=O)O)NC(=O)CNC(=O)[C@@H](N)Cc1c[nH]cn1)[C@@H](C)O)[C@@H](C)CC)C(=O)N[C@@H](CC(N)=O)C(=O)N[C@@H](Cc1c[nH]c2ccccc12)C(=O)N[C@@H](CC(C)C)C(=O)N[C@H](C(=O)N[C@@H](CCC(N)=O)C(=O)N[C@H](C(=O)N[C@@H](CCCCN)C(=O)N[C@H](C(=O)N[C@H](C(=O)N[C@@H](CC(=O)O)C(=O)O)[C@@H](C)O)[C@@H](C)CC)[C@@H](C)O)[C@@H](C)CC [teduglutide],injection site reaction,13%
same,intestinal stoma complication,42%
same,upper respiratory tract infection,21%
